{"source": "paper PMC6979384", "about": "“Characterization of the plant homeodomain (PHD) reader family for their histone tail interactions” (Epigenetics & Chromatin, 2020)", "test_in_all_cases": "Histone peptide microarray", "type_in_all_cases": "binding, human", "key": {"[1]": {"test_system": "AIRE (PP)", "details": "histone peptide array, GST-tagged reader; arrays performed twice, n of 4", "outline": "(§1)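 Using an optimized microarray protocol, purified GST-tagged PHD fingers were incubated at 0.5 μM on 293 histone peptides with single or multiple modifications, and array signal was recorded as the average of 4 replicates.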"}, "[2]": {"test_system": "BAZ2B", "details": "histone peptide array, GST-tagged reader; arrays performed twice, n of 4", "outline": "as §1"}, "[3]": {"test_system": "BPTF (PB)", "details": "histone peptide array, GST-tagged reader; PB = PHD + Bromodomain; arrays performed twice, n of 4", "outline": "as §1"}, "[4]": {"test_system": "CHD4 (PPCC)", "details": "histone peptide array, GST-tagged reader; PPCC = Dual PHD + Dual Chromodomain; arrays performed twice, n of 4", "outline": "as §1"}, "[5]": {"test_system": "CHD5 (PCC)", "details": "histone peptide array, GST-tagged reader; PCC = PHD + Dual Chromodomain; arrays performed twice, n of 4", "outline": "as §1"}, "[6]": {"test_system": "CHD5 (PPCC)", "details": "histone peptide array, GST-tagged reader; PPCC = Dual PHD + Dual Chromodomain; arrays performed twice, n of 4", "outline": "as §1"}, "[7]": {"test_system": "DIDO1", "details": "histone peptide array, GST-tagged reader; arrays performed twice, n of 4", "outline": "as §1"}, "[8]": {"test_system": "DPF2 (PPC2W2)", "details": "histone peptide array, GST-tagged reader; PPC2W2 = Dual PHD + C2W2-type Zn-finger; arrays performed twice, n of 4", "outline": "as §1"}, "[9]": {"test_system": "ING1", "details": "histone peptide array, GST-tagged reader; arrays performed twice, n of 4", "outline": "as §1"}, "[10]": {"test_system": "ING2", "details": "histone peptide array, GST-tagged reader; arrays performed twice, n of 4", "outline": "as §1"}, "[11]": {"test_system": "ING3", "details": "histone peptide array, GST-tagged reader; arrays performed twice, n of 4", "outline": "as §1"}, "[12]": {"test_system": "ING4", "details": "histone peptide array, GST-tagged reader; arrays performed twice, n of 4", "outline": "as §1"}, "[13]": {"test_system": "ING5", "details": "histone peptide array, GST-tagged reader; arrays performed twice, n of 4", "outline": "as §1"}, "[14]": {"test_system": "KDM4C (TTP)", "details": "histone peptide array, GST-tagged reader; TTP = Tandem Tudor domain + PHD; arrays performed twice, n of 4", "outline": "as §1"}, "[15]": {"test_system": "KDM5A (1)", "details": "histone peptide array, GST-tagged reader; arrays performed twice, n of 4", "outline": "as §1"}, "[16]": {"test_system": "KDM5A (3)", "details": "histone peptide array, GST-tagged reader; arrays performed twice, n of 4", "outline": "as §1"}, "[17]": {"test_system": "KDM5B (1)", "details": "histone peptide array, GST-tagged reader; arrays performed twice, n of 4", "outline": "as §1"}, "[18]": {"test_system": "KDM5B (3)", "details": "histone peptide array, GST-tagged reader; arrays performed twice, n of 4", "outline": "as §1"}, "[19]": {"test_system": "KDM7A", "details": "histone peptide array, GST-tagged reader; arrays performed twice, n of 4", "outline": "as §1"}, "[20]": {"test_system": "MLL5", "details": "histone peptide array, GST-tagged reader; arrays performed twice, n of 4", "outline": "as §1"}, "[21]": {"test_system": "MORC3 (CW)", "details": "histone peptide array, GST-tagged reader; CW = CW-type Zn-finger; arrays performed twice, n of 4", "outline": "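GST-tagged PHD finger readers were expressed, purified and applied at 0.5 μM to a microarray of 293 synthetic histone peptides carrying single or combinatorial PTMs, using an optimized protocol. Binding signals are averages with standard deviation from 4 replicates.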"}, "[22]": {"test_system": "PHF13", "details": "histone peptide array, GST-tagged reader; arrays performed twice, n of 4", "outline": "as §1"}, "[23]": {"test_system": "PHF21A", "details": "histone peptide array, GST-tagged reader; arrays performed twice, n of 4", "outline": "as §1"}, "[24]": {"test_system": "PHF23", "details": "histone peptide array, GST-tagged reader; arrays performed twice, n of 4", "outline": "as §1"}, "[25]": {"test_system": "PHF2", "details": "histone peptide array, GST-tagged reader; arrays performed twice, n of 4", "outline": "as §1"}, "[26]": {"test_system": "PHF8", "details": "histone peptide array, GST-tagged reader; arrays performed twice, n of 4", "outline": "as §1"}, "[27]": {"test_system": "PHRF1 (RP)", "details": "histone peptide array, GST-tagged reader; arrays performed twice, n of 4", "outline": "as §1"}, "[28]": {"test_system": "RAG2", "details": "histone peptide array, GST-tagged reader; arrays performed twice, n of 4", "outline": "as §1"}, "[29]": {"test_system": "SP140L", "details": "histone peptide array, GST-tagged reader; arrays performed twice, n of 4", "outline": "as §1"}, "[30]": {"test_system": "TAF3", "details": "histone peptide array, GST-tagged reader; arrays performed twice, n of 4", "outline": "as §1"}, "[31]": {"test_system": "TRIM66 (PB)", "details": "histone peptide array, GST-tagged reader; PB = PHD + Bromodomain; arrays performed twice, n of 4", "outline": "as §1"}}}
{"substance": "H3.3 (27-45): H3.3 27-45 (KSAPSTGGVKKPHRYRPGT; UniProt P84243 28-46, looked up, fragment)", "values": [{"measurement": "Array Heatmap signal, AIRE (PP)", "setting": "[1]", "result": 0.4994}, {"measurement": "Array Heatmap signal, BAZ2B", "setting": "[2]", "result": 0.4692}, {"measurement": "Array Heatmap signal, BPTF (PB)", "setting": "[3]", "result": 0.34}, {"measurement": "Array Heatmap signal, CHD4 (PPCC)", "setting": "[4]", "result": 0.5867}, {"measurement": "Array Heatmap signal, CHD5 (PCC)", "setting": "[5]", "result": 0.7947}, {"measurement": "Array Heatmap signal, CHD5 (PPCC)", "setting": "[6]", "result": 0.5478}, {"measurement": "Array Heatmap signal, DIDO1", "setting": "[7]", "result": 0.7133}, {"measurement": "Array Heatmap signal, DPF2 (PPC2W2)", "setting": "[8]", "result": 0.6084}, {"measurement": "Array Heatmap signal, ING1", "setting": "[9]", "result": 0.4846}, {"measurement": "Array Heatmap signal, ING2", "setting": "[10]", "result": 0.588}, {"measurement": "Array Heatmap signal, ING3", "setting": "[11]", "result": 0.4546}, {"measurement": "Array Heatmap signal, ING4", "setting": "[12]", "result": 0.4566}, {"measurement": "Array Heatmap signal, ING5", "setting": "[13]", "result": 0.3478}, {"measurement": "Array Heatmap signal, KDM4C (TTP)", "setting": "[14]", "result": 0.5199}, {"measurement": "Array Heatmap signal, KDM5A (1)", "setting": "[15]", "result": 0.4676}, {"measurement": "Array Heatmap signal, KDM5A (3)", "setting": "[16]", "result": 0.405}, {"measurement": "Array Heatmap signal, KDM5B (1)", "setting": "[17]", "result": 0.6276}, {"measurement": "Array Heatmap signal, KDM5B (3)", "setting": "[18]", "result": 0.4762}, {"measurement": "Array Heatmap signal, KDM7A", "setting": "[19]", "result": 0.4316}, {"measurement": "Array Heatmap signal, MLL5", "setting": "[20]", "result": 0.5451}, {"measurement": "Array Heatmap signal, MORC3 (CW)", "setting": "[21]", "result": 0.3459}, {"measurement": "Array Heatmap signal, PHF13", "setting": "[22]", "result": 0.5824}, {"measurement": "Array Heatmap signal, PHF21A", "setting": "[23]", "result": 0.4761}, {"measurement": "Array Heatmap signal, PHF23", "setting": "[24]", "result": 0.5188}, {"measurement": "Array Heatmap signal, PHF2", "setting": "[25]", "result": 0.4329}, {"measurement": "Array Heatmap signal, PHF8", "setting": "[26]", "result": 0.3699}, {"measurement": "Array Heatmap signal, PHRF1 (RP)", "setting": "[27]", "result": 0.4032}, {"measurement": "Array Heatmap signal, RAG2", "setting": "[28]", "result": 0.2569}, {"measurement": "Array Heatmap signal, SP140L", "setting": "[29]", "result": 0.3705}, {"measurement": "Array Heatmap signal, TAF3", "setting": "[30]", "result": 0.2584}, {"measurement": "Array Heatmap signal, TRIM66 (PB)", "setting": "[31]", "result": 0.5678}]}
